The values that follow come from patent US9120749B2, “Quinoline derivatives and MELK inhibitors containing the same” (ONCOTHERAPY SCIENCE, INC., priority 2010, dated 2015).

Where a name gives a salt, the structure may show the parent alone. Read-outs that look alike come from different tables or passages of the source.

Test [1] has as its system 22Rv1 cells. As to the kind of experiment: Cell-based assay: anti-proliferative activity, Cell Counting Kit-8, 72 hours (22Rv1). The settings on record: Homo sapiens, 22Rv1, 72 h.
The target in test [2] is MELK (Homo sapiens, UniProt Q14680). The test is described as follows: Kinase assay: MELK activity, phosphorylation of FITC-labeled histone H3 peptide measured by IMAP fluorescence polarization. It is filed as biochemical. To be noted: read-out: IC50 (μM) (kinase assay). The procedure, abridged:
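FP readout: FITC-histone H3 peptide phosphorylation, read 0.5 h (RT) after stopping with 3x volume of IMAP progressive binding solution. Final DMSO 1%.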

Test [3] concerns A549 cells. As to the kind of experiment: Cell-based assay: anti-proliferative activity, Cell Counting Kit-8, 72 hours (A549). The settings on record: Homo sapiens, A549, 72 h, 72 hours. The procedure, abridged:
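A549 cells were seeded in 96-well plates and exposed to candidate inhibitors for 72 hours. Cell growth was then measured with Cell Counting Kit-8, and IC50 values were calculated from the resulting growth data.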

For test [4], the system named is DU4475 cells. As to the kind of experiment: Cell-based assay: anti-proliferative activity, Cell Counting Kit-8, 72 hours (DU4475). To be noted: Homo sapiens, DU-4475, 72 h.
The subject of test [5] is T47D cells. The test is described as follows: Cell-based assay: anti-proliferative activity, Cell Counting Kit-8, 72 hours (T47D). The settings on record: Homo sapiens, T47D, 72 h. The essentials: (§1)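 Cellular growth is read by CCK-8 colorimetric kit 72 h after inhibitor addition to seeded cells, and IC50 values are derived from the resulting data; MELK protein levels in these lines are checked beforehand by immunoblotting whole crude lysate.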

The subject of test [6] is HT-1197 cells. As to the kind of experiment: Cell-based assay: anti-proliferative activity, Cell Counting Kit-8, 72 hours (HT-1197, negative control without MELK expression). To be noted: Homo sapiens, HT1197, 72 h, HT1197 cells (negative control, no MELK expression), 72 hours. The procedure, abridged:
as §1

Where [7] appears, read: MELK kinase assay, IMAP fluorescence polarization, 50 micro-M ATP.

Chain of MELK (Q14680 whole entry, looked up): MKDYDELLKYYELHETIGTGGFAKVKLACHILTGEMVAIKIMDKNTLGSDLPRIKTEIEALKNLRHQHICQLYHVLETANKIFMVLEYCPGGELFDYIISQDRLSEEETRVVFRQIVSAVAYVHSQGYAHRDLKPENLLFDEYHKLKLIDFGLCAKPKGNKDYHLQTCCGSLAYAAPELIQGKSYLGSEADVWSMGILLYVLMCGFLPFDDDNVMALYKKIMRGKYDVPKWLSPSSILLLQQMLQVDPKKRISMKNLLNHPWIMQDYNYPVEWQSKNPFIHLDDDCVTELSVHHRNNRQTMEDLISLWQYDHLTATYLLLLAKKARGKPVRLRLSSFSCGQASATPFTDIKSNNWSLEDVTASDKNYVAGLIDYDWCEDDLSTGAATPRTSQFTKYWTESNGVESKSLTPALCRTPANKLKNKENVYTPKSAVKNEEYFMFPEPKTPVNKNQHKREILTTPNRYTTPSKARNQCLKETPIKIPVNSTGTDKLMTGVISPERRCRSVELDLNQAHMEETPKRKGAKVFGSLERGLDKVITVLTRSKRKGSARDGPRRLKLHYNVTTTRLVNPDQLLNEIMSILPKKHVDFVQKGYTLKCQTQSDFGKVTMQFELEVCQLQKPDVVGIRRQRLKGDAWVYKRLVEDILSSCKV

For `CNC1CCN(c2ccc(Nc3c(C(C)=O)cnc4ccc(-c5cc(Cl)c(O)c(Cl)c5)cc34)cn2)C1` (stereo not drawn) [Example 788, 1-(6-(3,5-dichloro-4-hydroxyphenyl)-4-((6-(3-(methylamino)pyrrolidin-1-yl)pyridin-3-yl)amino)quinolin-3-yl)ethanone trihydrochloride], the IC50 in test [1] was determined as 0.1 µM; in test [2], 0.0017 µM; in test [3] it was 0.16 µM; in test [4], 0.07 µM; in test [5], 0.071 µM; in test [6], 8.6 µM.
In the case of `COc1cc(-c2ccc3ncc(C(C)=O)c(N[C@H]4CC[C@H](CN5CCC[C@@H]5CO)CC4)c3c2)cc(Cl)c1O` [Example 811], the IC50 in test [1] turned out to be 0.45 µM; in test [2], 0.0027 µM; in test [3], 0.28 µM; in test [4], 0.38 µM; in test [5], 0.49 µM; in test [6] it was 5.4 µM.
For `CC(=O)c1cnc2ccc(-c3cc(F)c(O)c(Cl)c3)cc2c1N[C@H]1CC[C@H](CN2CCCC(N)C2)CC1` (stereo partly drawn) [Example 818], the IC50 in test [1] is 0.064 µM; in test [2] (setting [7]), 0.0043 µM; in test [3] it was 0.14 µM; in test [4] it was 0.071 µM; in test [5], 0.022 µM; in test [6], 2.7 µM.
For `CC(=O)c1cnc2ccc(-c3cc(F)c(O)c(Cl)c3)cc2c1N[C@H]1CCC[C@@H](CN(C)C)C1` [Example 826, 1-(6-(3-chloro-5-fluoro-4-hydroxyphenyl)-4-((1S,3R)-3-((dimethylamino)methyl)cyclohexylamino)quinolin-3-yl)ethanone hydrochloride], the IC50 in test [1] came to 0.48 µM; in test [2] (setting [7]), 0.0083 µM; in test [3] it was 0.54 µM; in test [4] it was 0.22 µM; in test [5] it was 0.25 µM; in test [6] it was 1.9 µM.
Regarding `CC(=O)c1cnc2ccc(-c3cc(F)c(O)c(Cl)c3)cc2c1N[C@H]1CCC[C@H](CCN(C)C)C1` [Example 862, 1-(6-(3-chloro-5-fluoro-4-hydroxyphenyl)-4-(((1S,3R)-3-(2-(dimethylamino)ethyl)cyclohexyl)amino)quinolin-3-yl)ethanone hydrochloride], the IC50 was determined as 0.2 µM in test [1]; 0.0067 µM in test [2] (setting [7]); 0.29 µM in test [3]; 0.2 µM in test [4]; 0.26 µM in test [5]; 1.1 µM in test [6].
As to `COc1cc(-c2ccc3ncc(C(C)=O)c(N[C@H]4CC[C@H](CN5CCCC(N)C5)CC4)c3c2)cc(Cl)c1O` (stereo partly drawn) [Example 809, 1-(4-(1R,4R)-4-((3-aminopiperidin-1-yl)methyl)cyclohexylamino)-6-(3-chloro-4-hydroxy-5-methoxyphenyl)quinolin-3-yl)ethanone hydrochloride], the IC50 in test [1] was found to be 2.6 µM; in test [2] it was 0.016 µM; in test [3] it was 3.1 µM; in test [4], 10 µM; in test [5] it was 4.6 µM; in test [6], 10 µM.
As to `CC(=O)c1cnc2ccc(-c3cc(Cl)c(O)c(Cl)c3)cc2c1Nc1cnn(C2CCN(C)C2)c1` (stereo not drawn) [Example 814, 1-(6-(3,5-dichloro-4-hydroxyphenyl)-4-((1-(1-methylpyrrolidin-3-yl)-1H-pyrazol-4-yl)amino)quinolin-3-yl)ethanone dihydrochloride], the IC50 came out at 0.13 µM in test [1]; 0.0009 µM in test [2] (setting [7]); 0.29 µM in test [3]; 0.057 µM in test [4]; 0.14 µM in test [5]; 0.78 µM in test [6].
`CCC(=O)c1cnc2ccc(-c3cc(Cl)c(O)c(OC)c3)cc2c1Nc1ccc(CN(C)C)cc1` [Example 769, 1-(6-(3-chloro-4-hydroxy-5-methoxyphenyl)-4-(4-((dimethylamino)methyl)phenylamino)quinolin-3-yl)propan-1-one]: the IC50 in test [1] amounted to 0.79 µM; in test [2] it was 0.0049 µM; in test [3], 0.48 µM; in test [4], 0.14 µM; in test [5], 0.12 µM; in test [6] it was 2.8 µM.
As to `CC(=O)c1cnc2ccc(-c3cc(F)c(O)c(Cl)c3)cc2c1N[C@H]1CCC[C@@H](CN2CCN(C)CC2)C1` [Example 832, 1-(6-(3-chloro-5-fluoro-4-hydroxyphenyl)-4-((1S,3R)-3-((4-methylpiperazin-1-yl)methyl)cyclohexylamino)quinolin-3-yl)ethanone hydrochloride], the IC50 in test [1] was found to be 0.44 µM; in test [2] (setting [7]), 0.009 µM; in test [3] it was 0.26 µM; in test [4], 0.24 µM; in test [5] it was 0.17 µM; in test [6] it was 0.79 µM.
